Experimental findings from patent US20230036041A1, “SORTILIN BINDING CONJUGATE COMPOUNDS, COMPOSITIONS AND USES THEREOF FOR TREATING CANCER” (THERATECHNOLOGIES INC., priority 2019, published 2023) are described below.

Series [1] has as its system murine B16-F10 cancer cells. Nature of the series: syngeneic melanoma tumor model (B16-F10). It counts as in vivo, mice. The settings on record: for body weights, dose-response study: equivalent doses, −20% endpoint limit. Here is the method:
(§1) Briefly, stock solution of formulated TH1902 was prepared as sterile aliquots of 10 mg/mL frozen liquid solutions (see below). On the day of animal dosing, frozen aliquots were thawed 30 minutes at room temperature then diluted with sterile 5% dextrose injection, USP (D5W) to the desired concentration for injection (i.e. typically 5.4 or 1.35 mg/mL).
TH1902 frozen stock solution were prepared as follow: • 1. Make the TH1902 diluent solution (Diluent) the day before the solubilization. Diluent: 10% Tween™ 80 in D5W USP (w/v) with 0.04% of formic acid (v/v), ˜pH 2.9. Leave solution at room temperature until TH1902 solubilization (next day). • 2. Weigh 60 mg of TH1902 API into a 14 ml glass vial with screw caps. Adjust TH1902 weights to reflect TH1902 purity according to the certificate of analysis. • 3. Add 90% of diluent solution needed to prepare the TH1902 10 mg/ml stock solution. • 4. Swirl the content of the bottle to form opaque mixture and place a stir bar. • 5. Place bottle in the heating apparatus (glass water bath and mount for holding vial with thermometer and stir bar on a digital heating plate). Begin mixing the content of the bottle. • 6. Gradually increase the temperature of water bath in increments of 5° C. every 30 minutes until mixture turns clear (temperature ramping up to 45° C. over a period of time of about 165 to 180 minutes). Record water bath temperature every 15 minutes. • 7. Leave at room temperature for 30 minutes with gentle swirling (cool down). Measure pH. Adjust pH to 4.3±0.2 using dilute NaOH (0.1 N or less). • 8. Transfer the formulation to a graduated glass cylinder and bring to final calculated volume with diluent solution. • 9. Transfer back into the 14 ml glass vial and mix slowly for 5 minutes at room temperature. Measure pH. pH should be 4.3±0.2. • 10. Filter sterilize with a PES 0.22 μm membrane into a new and sterile 14 ml glass vial. Check the pH again. Perform UPLC analysis against a TH1902 standard curve for quantification and purity assessment. • 11. Freeze aliquots of TH1902 stock solution at −80° C. (0.5 mL per aliquot in 4 mL glass vials).
For the syngeneic B16-F10 melanoma tumor model, normal immunocompetent mice were implanted subcutaneously with murine B16-F10 cancer cells. […]
For FIG. 28A, immunocompetent mice bearing B16-F10 xenografts were repeatedly injected intravenously (arrows indicate injection days) with vehicle or with vehicle containing equivalent of docetaxel (15 mg/kg/week) or TH1902 (35 mg/kg/week). In FIG. 28B, the effects of TH1902 and docetaxel on tumor progression at day-14 are presented by subtracting the initial tumor volumes at day-0 to the tumor volumes measured at day-14 when tumors of the vehicle group reached the endpoint limits. […]

Series [2] is described as follows: assessment of neutropenia in treated mice. The format is in vivo. The settings on record: athymic mice; for neutrophil counts: docetaxel 15 mg/kg/week or TH1902 at equivalent dose, up to 6 treatments, FIG. 11. The method, then:
15 young adult, female, homozygous athymic mice (Crl:CD1-Foxn1^nu, 4-6 weeks of age) received 6 consecutive treatments of docetaxel or TH1902 (at equivalent dose of docetaxel (15 mg/kg/week)). […] This level continued to decrease as the administration of docetaxel continued.

The nature of series [3]: mouse plasma levels after IV bolus injection. The format is in vivo, mice. Here is the method: In addition, TH1902 and docetaxel mouse plasma levels were assessed in TH1902-treated mice.
The test system of series [4] is MDA-MB-231 breast cancer cells. Nature of the series: cells. It counts as cell-based, human. The following applies: read-out: IC50 value, anti-proliferative activity. The method, then: In vitro testing of the TH19P01 peptide and the TH1902 conjugate compound was conducted.
Series [5] has as its system AN3-CA endometrial xenograft tumor. It counts as in vivo, mice. The method, then: as §1
(§2) TH1902 frozen stock solution were prepared as follow: • 1. Make the TH1902 diluent solution (Diluent) the day before the solubilization. Diluent: 10% Tween™ 80 in D5W USP (w/v) with 0.04% of formic acid (v/v), ˜pH 2.9. Leave solution at room temperature until TH1902 solubilization (next day). • 2. Weigh 60 mg of TH1902 API into a 14 ml glass vial with screw caps. Adjust TH1902 weights to reflect TH1902 purity according to the certificate of analysis. • 3. Add 90% of diluent solution needed to prepare the TH1902 10 mg/ml stock solution. • 4. Swirl the content of the bottle to form opaque mixture and place a stir bar. • 5. Place bottle in the heating apparatus (glass water bath and mount for holding vial with thermometer and stir bar on a digital heating plate). Begin mixing the content of the bottle. • 6. […] Transfer the formulation to a graduated glass cylinder and bring to final calculated volume with diluent solution. • 9. […] Perform UPLC analysis against a TH1902 standard curve for quantification and purity assessment. • 11. […]
Three human sortilin-positive gynecological cancer cell lines (ovary: ES-2 and SKOV-3/Luc, endometrial: AN3-CA) were used for to assess the chemotherapeutic activity of TH1902 in vivo using xenograft models in immunodeficient mice. […] Body weights of the mice administered with docetaxel, TH1902 or vehicle were monitored as a gross indicator of morbidity.
The effect of TH1902 or docetaxel on the endometrial AN3-CA xenograft tumor model is shown on FIG. 24. […] In FIG. 24B effects of TH1902 and docetaxel on tumor progression at day-14 are presented by subtracting the initial tumor volumes at day-0 to the tumor volumes measured at day 14. […]

The test system of series [6] is HT29 colorectal xenograft tumors. Nature of the series: colorectal cancer xenograft model (HT-29). The format is in vivo, mice. The settings on record: low and high doses, −20% endpoint limit. Here is the method:
as §1, §2

The term IC50 denotes the point on the concentration scale where inhibition reaches its midpoint.

Where two headings read alike, the source gives them in different places. Non-standard residues stand in square brackets, D forms with d. Residues, ends and D or L forms follow the SMILES beside them. *: point of attachment. X1 = CC(=O)O[C@@]12CO[C@@H]1C[C@H](O)[C@@]1(C)C(=O)[C@H](O)C3=C(C)[C@@H](OC(=O)[C@H](OC(=O)CCC(=O)*)[C@@H](NC(=O)OC(C)(C)C)c4ccccc4)C[C@@](O)([C@@H](OC(=O)c4ccccc4)[C@H]21)C3(C)C; Nle = CCCC[C@H](N)C(=O)O

With `CCCC[C@H](NC(=O)[C@H](CC(N)=O)NC(=O)[C@H](CCCNC(=N)N)NC(=O)[C@@H](NC(=O)CNC(=O)[C@H](C)NC(=O)[C@H](CCCCNC(=O)CCC(=O)O[C@@H](C(=O)O[C@H]1C[C@@]2(O)[C@@H](OC(=O)c3ccccc3)[C@@H]3[C@]4(OC(C)=O)CO[C@@H]4C[C@H](O)[C@@]3(C)C(=O)[C@H](O)C(=C1C)C2(C)C)[C@@H](NC(=O)OC(C)(C)C)c1ccccc1)NC(=O)[C@H](C)NC(=O)[C@H](CCCNC(=N)N)NC(=O)[C@@H](NC(=O)CNC(C)=O)C(C)C)C(C)C)C(=O)N[C@@H](Cc1ccccc1)C(=O)N[C@@H](CCCCNC(=O)CCC(=O)O[C@@H](C(=O)O[C@H]1C[C@@]2(O)[C@@H](OC(=O)c3ccccc3)[C@@H]3[C@]4(OC(C)=O)CO[C@@H]4C[C@H](O)[C@@]3(C)C(=O)[C@H](O)C(=C1C)C2(C)C)[C@@H](NC(=O)OC(C)(C)C)c1ccccc1)C(=O)N[C@@H](CO)C(=O)N[C@@H](CCC(=O)O)C(=O)N[C@@H](CO)C(=O)N[C@@H](Cc1ccc(O)cc1)C(=O)O` [TH1902, Acetyl-GVRAK(docetaxel)AGVRN(Nle)FK(docetaxel)SESY] (Ac-GVRAK(X1)AGVRN[Nle]FK(X1)SESY-OH), the “mouse body weights, first study” value in series [1] (TH1902 35 mg/kg/week) was “without having an impact on mouse body weights”. Besides, the “body weights, dose-response study” value in series [1] is “within the acceptable range”. In series [2] (TH1902 at equivalent dose of docetaxel 15 mg/kg/week), the weight loss entry is reported as “no weight loss was observed”. Moreover, the neutrophil counts entry in series [2] was “no apparent change in the neutrophil counts”. Also, the “concentration of docetaxel released from TH1902 in plasma” value in series [3] (mouse plasma, IV bolus injection 50 mg/kg TH1902) was “very low concentration”. Also, the “plasma concentration of TH1902” value in series [3] (mouse plasma, IV bolus injection 50 mg/kg TH1902, FIG. 12) is “high plasma concentration”. Besides, in series [4], the IC50 came to 190 ± 90 pM. Also, the body weights entry was “retained a fairly constant weight” in series [5] (MTD for docetaxel, TH1902 containing the equivalent quantity of docetaxel) and “within the acceptable range” in series [6].
On to `CC(=O)O[C@@]12CO[C@@H]1C[C@H](O)[C@@]1(C)C(=O)[C@H](O)C3=C(C)[C@@H](OC(=O)[C@H](O)[C@@H](NC(=O)OC(C)(C)C)c4ccccc4)C[C@@](O)([C@@H](OC(=O)c4ccccc4)[C@H]21)C3(C)C` [docetaxel], for which the “tumor growth at the highest dose, dose-response study” value in series [1] (TH1902 23 mg/kg/bi-weekly, docetaxel 10 mg/kg/bi-weekly) is “only a minor impact on tumor growth”. The “body weights, dose-response study” value in series [1] was “within the acceptable range”. Further, the neutrophil counts result in series [2] is reported as “sharp drop in neutrophil levels”. Further, in series [3] (administered as a free drug), the “docetaxel concentration that can be measured in plasma” value was 15-20%. Also, the IC50 in series [4] (Homo sapiens) came out at 560 ± 190 pM. Besides, the “tumor growth, high dose” value in series [5] (equivalent dose of docetaxel 15 mg/kg/week (TH1902 35 mg/kg/week), halved after 2 cycles) is given as “complete arrest tumor growth arrest”. For the same compound, the body weights entry in series [5] (mouse, in vivo) is listed as “greater evidence of weight loss”; in series [6] it was “within the acceptable range”.
